Experiments:
[1] = tested on: Wnt/β-catenin signaling; test: Inhibitory effect on Wnt/β-catenin signaling in liver cancer cells (HuH7-TCF4 luciferase); type: cell-based, human; details: concentration equal to or lower than that of IC-2
Method in brief: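 HuH-7 cells stably carrying a 3×TCF4-motif firefly luciferase reporter, treated 48 h at 37 °C with compounds at concentrations reducing HuH-7 growth to about 50% or less (n=3). Firefly luciferase luminescence read from lysates; 0.1% DMSO solvent control, 0.5 μM 5-FU control; Student's t-test.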

[2] = tested on: cancer stem cells (CD44) in HuH-7 cells; test: Inhibitory effect on cancer stem cells (FCM analysis of CD44), Example 6.4; type: cell-based, human; details: CD44, day 2, IC-2 50 μM, 5-FU 0.5 μM, compared with control 1% DMSO
Method: CD44, a cancer stem cell marker, was used as an indicator to examine an inhibitory effect of IC-2 on cancer stem cells. First, 70 to 90% confluent HuH-7 cells were harvested and seeded at 1.5×10^6 cells per 10-cm cell culture dish. After 15 h, the cells were treated with hexachlorophene (15 μM), ICG-001 (15 μM), PKF118-310 (5 μM), IC-2 (50 μM), or 5-FU (0.5 μM), and the mixture was cultured at 37° C. Each control sample used was 1% DMSO, a solvent for each compound or the anti-cancer drug. Day 2 after the drug treatment, the cells were harvested from each culture dish. The cells were centrifuged at 1000 rpm and at 4° C. for 5 min to remove a supernatant and were then washed twice with 1 mL of 0.5% FBS/2 mM EDTA/PBS. Next, the cells were suspended in 500 μL of 5% BSA/0.5% FBS/2 mM EDTA/PBS for blocking at 4° C. for 15 min.
Then, 5 μL of a mouse anti-human CD44 monoclonal antibody (156-3C11, Cell Signaling Technology Inc., Danvers, Mass.) was added to 500 μL of the cell suspension. The mixture was resuspended and subjected to a primary antibody reaction in a dark room at 4° C. for 10 min. After that, the cells were washed 3 times with 1 mL of PBS. Subsequently, 1.0 μg of Alexa Fluor 488-labeled IgG (H+L) (Life Technologies Corp., Carlsbad, Calif.) was added and the mixture was suspended. Then, a secondary antibody reaction was carried out in a dark room at 4° C. for 10 min. […]

[3] = tested on: CD44-positive HuH-7 cells; test: Liver cancer model mouse, tumor volume; type: in vivo, mice; details: 50 mg/kg IC-2 vs 30 mg/kg 5-FU, intraperitoneally every three days
Method: CD44-positive HuH-7 cells were subcutaneously transplanted in mice. Next, the engrafted mice were divided into 3 groups (DMSO group: 5 mice; 5-FU group: 4 mice; and IC-2 group: 4 mice). Then, DMSO was added to prepare 30 mg/kg of 5-FU and 50 mg/kg of IC-2 such that each liquid volume was 100 μL; and 100% DMSO, a solvent for each drug, was used as a control sample. Subsequently, each drug was dosed intraperitoneally every three days. The body weight of each mouse and the long and short diameters of a tumor were measured every three days. The tumor volume was calculated by using the following equation: Tumor volume=Long diameter×(Short diameter)^2×0.5. The volume at Day 0 was used to normalize each tumor volume, and then a graph was created. To fully evaluate a 5-FU effect, the 5-FU dose was set to an amount 2 times the regular amount 15 mg/kg used in research articles. The concentration of IC-2 corresponding to a concentration at which Wnt/β-catenin signaling was inhibited in vitro was calculated. Then, the concentration was doubled to set an IC-2 dose.

Row | Compound | inhibitory effect on Wnt/β-catenin signaling pathway in liver cancer cells compared with IC-2 [1] | number of cancer stem cells [2] | anti-malignant tumor therapeutic effect (tumor volume) [3]
1 | COc1ccc(COc2ccc(CNC(=O)N3CCC(=O)N4C(Cc5ccccc5)C(=O)N(Cc5cccc6ccccc56)CC34)cc2)cc1 (stereo not drawn) [IC-2-OPMB] | more potent inhibitory effect |  | 
2 | O=C1C(Cc2ccccc2)N2C(=O)CCN(C(=O)NCc3ccccc3)C2CN1Cc1cccc2ccccc12 (stereo not drawn) [IC-2] |  | significant reduction in the number of cancer stem cells | more remarkable anti-malignant tumor therapeutic effect than 5-FU
